Laboratory results reported in PMC4721142, “Randomized controlled studies on the efficacy of antiarthritic agents in inhibiting cartilage degeneration and pain associated with progression of osteoarthritis in the rat” (Arthritis Research & Therapy, 2016).
Like-named read-outs stand apart in the source and are kept apart here.

Experiments:
[1] = Comparison of in vitro screens: overlapping effective and nontoxic range; details: for Overlapping effective and nontoxic range: inhibits with minimal or no toxicity to synovium or cartilage, overlapping range if effective in more than one assay;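 as to all read-outs here: compares non-toxic ranges in synovial cells and chondrocytes with effective ranges against NFkB, MMP-13 and osteoclasts, giving their overlap as the predicted efficacy range in uM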
RAW 264.7 cells = assay: RANKL-mediated osteoclastogenesis / matrix resorption (Osteologic) assay; format: cell-based, murine
Procedure, shortened: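 Agents were tested during or after differentiation. Wells were bleached and resorption pits were quantified by image analysis versus RANKL-only controls, using an unpaired t-test.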

IKK-1 = details: reported, cited from earlier work
SW982 [2] = assay: Synovial toxicity (CellTiter-Glo), with or without TNF-α
Method: (§2) Viability was measured with the CellTiter-Glo luminescent viability assay (Promega). […] To more accurately predict the effects of the drugs on osteoarthritic synovium, cells were tested with or without TNF-α (20 ng/ml; BioSource).
(§3) In Vitro Toxicity Testing with a Synovial Cell Line
(§4) Compounds were tested for synovial toxicity using SW982 cells alone or in the presence of TNF as

IKK-2 = details: reported; cited from earlier work
[3] = tested on: Normal human articular chondrocytes; assay: Cytotoxicity to chondrogenic pellets (CellTiter-Blue)
Method: (§5) Differentiated chondrogenic pellets were used both to test the ability of drugs to block MMP-13 activity and to test for drug toxicity. […] Supernatants were collected and analyzed for MMP-13 using an enzyme-linked immunosorbent assay (GE Healthcare Life Sciences, Little Chalfont, UK). Cytotoxicity to pellets was assessed using CellTiter-Blue (Promega).

[4] = published half-life; cited from earlier work
HeLa cells = assay: HeLa cell viability (CellTiter-Glo)
Method: (§1) NF-κB activity was assessed using a previously described dual plasmid reporter system. HeLa cells were transfected with NF-κB luciferase (Stratagene Products Division, Agilent Technologies, La Jolla, CA, USA) and pRLuc-N3 (PerkinElmer, Waltham, MA, USA) at an 8:1 ratio, respectively, in triplicate. […] NF-κB activity was measured 5 h later with a Dual-Glo Luciferase Assay (Promega, Madison, WI, USA) and an Omni plate reader (BMG Labtech, Cary, NC, USA). The ratio of firefly luciferase luminescence (NF-κB reporter) to Renilla luciferase luminescence (control) was normalized for the number of viable transfected cells. Data are reported as a ratio of activity of viable treated cells over the activity of cells not exposed to TNF-α or drug (fold stimulation above basal untreated levels of activity). The viability of HeLa cells with and without drug was also measured using a CellTiter-Glo luminescent viability assay (Promega).
In Vitro Hela Cell Drug Toxicity Testing
Potential drug toxicity was measured using a CTG assay and HeLa cells (Promega). Drugs not tested in
this assay were tested in either of the in vitro toxicity assays already presented (synovial or chondrocyte
Table 3- Drug toxicity measured using a CTG assay and HeLa cells.

NF-κB = assay: TNF-α-stimulated NF-κB dual luciferase reporter assay in HeLa cells; format: cell-based
Method: as §1, with “(Promega). […]” for “(Promega).”
NF-κB activity was assessed in HeLa cells that were transiently transfected with two reporter constructs as described in the manuscript. Agents were tested for their ability to block TNF- […]
Expression of the luciferase from the Renilla construct was used as a measure of viability, which was confirmed with a cytotoxicity assay (see later section).

[5] = tested on: Normal human articular chondrocytes
Method: as §5

SW982 [6] = tested on: SW982
Method: as §2, §3, §4

MMP-13 = MMP-13 ELISA on supernatants of TNF-α-treated chondrogenic pellets; format: cell-based, human
[7] = tested on: IL-8 and IL-6 in synovial fibroblasts; set-up: method as in PMID 15316093; details: reported; read-out: IC50, blocks IL-8 and IL-6 in synovial fibroblasts; cited from earlier work
TNF-α in human monocytes = tested on: TNF-α in human monocytes; set-up: method as in PMID 15316093; details: reported; read-out: IC50, inhibits TNF-α in human monocytes; cited from earlier work
[8] = tested on: rat inflammatory arthritis model; set-up: method as in per Calbiochem; details: 30 mg/kg; ref per Calbiochem; cited from earlier work
IκBα phosphorylation = tested on: IκBα phosphorylation; set-up: method as in PMID 18849610; details: reported; read-out: IC50 for block of IκBα phosphorylation; cited from earlier work

| Compound | Non-toxic & predicted range of efficacy [1] [µM] | Overlapping effective and nontoxic range [1] | Non-toxic range (Synovial) (SW982 [2]) [µM] | IC50 (IKK-2) [µM] | Non-toxic range (Chondrocyte) [3] [µM] | Non-toxic concentrations (HeLa cells) | Effective against NF κβ (p<0.05) (NF-κB) | Inhibition of NF-κB at the concentrations tested (NF-κB) | also measured |
| --- | --- | --- | --- | --- | --- | --- | --- | --- | --- |
| N#Cc1c(C2CCNCC2)cc(-c2c(O)cccc2OCC2CC2)nc1N [IKK inhibitor VIII, 2-amino-6-(2-(cyclopropylmethoxy)-6-hydroxyphenyl)-4-(4-piperidinyl)-3-pyridinecarbonitrile] | 2 to 4 | 4 (toxicity to synovial cells) μM | 0.3 to 2 | 0.0085 | 0.25 to 16 | – | – | – | minimal effective concentration (RAW 264.7 cells; Mus musculus, RAW264.7, 168 h, read-out: Lowest inhibitory concentration, matrix resorption): 0.5 µM; IC50 (IKK-1; ref per Calbiochem): 0.25 µM |
| Cc1ccc2nc(NCCN)c3ncc(C)n3c2c1 [BMS-345541] | 0.24 to 7.8 | 0.244 µM | 0.24 to 7.8 | 0.3 | 0.24 to 15.6 | 0.24 to 15.6 µM | 1 to 15.6 µM | failed to inhibit | t 1/2 [4]: 2.2 h; IC50 (IKK-1): 4 µM |
| [C-]#[O+].[C-]#[O+].[C-]#[O+].[C-]#[O+].[C-]#[O+].[C-]#[O+].[Cl][Ru][Cl].[Cl][Ru][Cl] [CORM-2, tricarbonyldichlororuthenium(II) dimer] | 20 to 40 | 20–40+ μM | – | – | – | – | – | – | Non-toxic range (Chondrocyte) [5]: 0.625 to 40 M; Lowest inhibitory concentration, matrix resorption (RAW 264.7 cells): 20 µM; Non-toxic range (Synovial) (SW982 [6]): 2.5 to 40 M; Effective range against MMP-13 (MMP-13): 10 – 40 M |
| NC(=O)Nc1sc(-c2ccc(F)cc2)cc1C(N)=O [IKK-2 inhibitor IV, [5-(p-Fluorophenyl)-2-ureido]thiophene-3-carboxamide] | – | – | […] | […] | – | […] | Not consistently | […] | IC50 [7]: 0.1 µM; IC50 (TNF-α in human monocytes): 0.15 to 2.5 µM; Toxic concentrations (p<0.05) (HeLa cells): […]; Reduced paw edema [8]: ~100% |
| O=C(Nc1cc(C(F)(F)F)cc(C(F)(F)F)c1)c1cc(Cl)ccc1O [IKK inhibitor V, N-(3,5-bis-trifluoromethyl-phenyl)-5-chloro-2-hydroxy-benzamide] | 1.625 to 26 | 1.625 to 26 µM | – | – | – | None | Only at toxic | – | Non-toxic range (Synovial) (SW982 [2]; human): 0.1 to 0.2 µM; IC50 (IκBα phosphorylation): 0.25 µM; Non-toxic range (Chondrocyte) ([3]; male, human, 24 h): 0.4 to 13 µM; Toxic concentrations (p<0.05) (HeLa cells; human): 0.101 to 26 M |
